Assay results published in article PMC5852967, “Specific features of L-histidine production by Escherichia coli concerned with feedback control of AICAR formation and inorganic phosphate/metal transport” (Microbial Cell Factories, 2018).

Columns and labels:
Type in all cases: biochemical
[1] = biological target: T1, HisG^E271K feedback-resistant ATP-phosphoribosyltransferase (Escherichia coli, UniProt P60757, E271K); test: PR-ATP formation at […] nm with purified enzyme; % inhibition at […]; conditions: read-out: Inhibition, % / AICAR / 1 mM
T1 construct: His6-tagged HisG^E271K (HT-HisG^E271K)

[2] = biological target: T2, ATP-phosphoribosyltransferase (ATP-PRT, HisG) (Escherichia coli, UniProt P60757); test: PR-ATP formation at […] nm with purified enzyme; Lineweaver–Burk plot
T2 construct: N-terminal His6-Tag HisG (HT-HisG)
T2 sequence (P60757 1-299): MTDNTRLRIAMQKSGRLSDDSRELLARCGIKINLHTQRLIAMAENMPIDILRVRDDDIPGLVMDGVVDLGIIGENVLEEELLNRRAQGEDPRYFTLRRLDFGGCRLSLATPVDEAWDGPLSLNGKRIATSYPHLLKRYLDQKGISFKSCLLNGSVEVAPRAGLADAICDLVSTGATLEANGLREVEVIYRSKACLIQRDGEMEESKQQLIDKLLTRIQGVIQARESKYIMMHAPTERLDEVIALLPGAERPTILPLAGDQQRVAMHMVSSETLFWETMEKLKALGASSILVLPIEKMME

[3] = biological target: T2, ATP-phosphoribosyltransferase (ATP-PRT, HisG); test: PR-ATP formation at […] nm from ATP and PRPP with purified enzyme

NC(=O)c1ncn([C@@H]2O[C@H](COP(=O)(O)O)[C@@H](O)[C@H]2O)c1N [AICAR, 5-aminoimidazole-4-carboxamide-1-beta-D-ribofuranosyl 5′-monophosphate]
inhibition at 1000 µM [1]: 52%
Ki [2]: 650 µM

Nc1ncnc2c1ncn2[C@@H]1O[C@H](COP(=O)(O)O)[C@@H](O)[C@H]1O [AMP]
Ki [2]: 2150 µM

Nc1ncnc2c1ncn2[C@@H]1O[C@H](COP(=O)(O)OP(=O)(O)OP(=O)(O)O)[C@@H](O)[C@H]1O [ATP]
PR-ATP formation at 290 nm from ATP and PRPP with purified enzyme [3]: Both tested substances compete with ATP in HisG-catalyzed reactions
